Experimental data published in patent US9499551B2, “Substituted pyrrolo[2,3-b]pyridines for treating cancer or inflammatory diseases” (Confluence Life Sciences, Inc., priority 2014, dated 2016).

Legend:
TAK1-TAB1 = biological target: T1, TAK1-TAB1 (Homo sapiens, UniProt O43318); assay: TAK1-TAB1 binding inhibitory potency (LanthaScreen competitive binding assay, kinase tracer-236); conditions: 10 nM TAK1-TAB1, 100 nM kinase tracer-236; read-out: TAK1-Tab Inhibition IC50
T1 sequence (O43318 with tags, fused parts or gaps limits assumed): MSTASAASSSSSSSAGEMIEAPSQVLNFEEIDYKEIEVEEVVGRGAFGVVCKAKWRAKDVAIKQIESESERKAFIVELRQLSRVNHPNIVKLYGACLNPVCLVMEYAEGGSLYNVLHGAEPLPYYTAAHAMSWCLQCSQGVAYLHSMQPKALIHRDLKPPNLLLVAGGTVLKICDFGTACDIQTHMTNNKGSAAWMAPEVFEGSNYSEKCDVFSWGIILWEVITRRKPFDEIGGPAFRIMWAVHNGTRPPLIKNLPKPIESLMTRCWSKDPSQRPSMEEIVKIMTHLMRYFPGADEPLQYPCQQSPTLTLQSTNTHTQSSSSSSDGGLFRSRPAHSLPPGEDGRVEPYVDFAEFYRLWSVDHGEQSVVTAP
From the text: TAK1-TAB1 Binding Inhibitory Potency:
The ability of candidate compounds to interact with TAK1-TAB1 is quantitated by a competitive binding assay using the LanthaScreen technology developed by Life Technologies. This assay is based on the binding of a proprietary, Alexa Fluor® 647-labeled, ATP-competitive kinase inhibitor (kinase tracer-236) to the TAK1-TAB1 construct in presence of a europium-conjugated antibody, resulting in a FRET (fluorescence resonance energy transfer) signal. Displacement of the kinase tracer by compound results in a lower emission ratio upon excitation of the europium chelate. Candidate compounds are designed as potential irreversible inhibitors of TAK1-TAB1, capable of ligating to an active site cysteine residue. The time dependent nature of irreversible inhibition is investigated by performing the binding assay with and without a pre-incubation of compound and TAK1-TAB1.
The inhibitory potency of candidate compounds is measured in 20 mM HEPES pH 7.5, 10 mM MgCl2, 0.01% BSA, 0.0005% Tween-20, and 2% DMSO in the presence of 10 nM TAK1-TAB1, 2 nM Eu-anti-his antibody, and 100 nM kinase tracer-236 using a 384-well plate format. Background signal is defined in the absence of TAK1-TAB1 and uninhibited signal is defined in the presence of vehicle (2% DMSO) alone. Compounds were evaluated in an 11 point dose-response ranging from 20 μM to 0.34 nM. The binding assays are performed under two conditions to evaluate time dependence of inhibition. For the pre-incubation assay, TAK1-TAB1 and Eu-anti-his antibody are preincubated with compound or vehicle for two hours prior to the addition of kinase tracer. The non-preincubated assay is run in which TAK1-TAB1 and Eu-anti-his antibody are added to a mixture of compound and kinase tracer. IC50 values of compounds are determined using a 4 parameter logistical fit of emission ratio as a function of the concentration of compound. […]

[1] = test system: IL-6 Production in Human Peripheral Blood Mononuclear Cells (PBMC); assay: LPS stimulated IL-6 production in PBMC cells; type: cell-based; conditions: read-out: IL-6 Production Inhibition IC50
Protocol: LPS Stimulated IL-6 Production in PBMC Cells:
Lipopolysaccharide (LPS) stimulated IL-6 Production in Human Peripheral Blood Mononuclear Cells (PBMC): The cellular efficacy of compound candidates is determined using peripheral blood mononuclear cells purified from human whole blood, based upon the methods of Burnette et al. (2009) Pharmacology, 84:42-60. PBMC produce a number of cytokines (IL6, IL8, IL1β and TNFα) in response to stimulation with LPS. To induce the production of inflammatory mediators, PBMC are plated at a final concentration of 2×10^5 cells/well in a 96 well flat bottom plate in DMEM medium supplemented with 10% fetal bovine serum, 100 units/ml penicillin and 100 μg/ml streptomycin (Gibco BRL Life Technologies). Cells are treated with or without inhibitors for 1-3 hrs then stimulated with 100 ng/ml LPS (serotype 011:B4, Sigma) for an additional 3 hrs at 37° C. with 5% CO2. The supernatants are removed and stored at −20° C. until they are to be assayed. The levels of inflammatory mediators are determined using commercial MSD cytokine kits (Meso Scale Discovery) as per the manufacturer's instructions. Standard curves are based on 7 steps of 4× serial dilutions, with a wide dynamic range of 10000 pg/ml to 2.4 pg/ml, and a blank. Lower limit of detection (LLOD) is calculated at the commonly used 3× the standard deviation of the blank.

IC50 (TAK1-TAB1) [nM]	Compound	IC50 [1] [nM]
≤ 1000	C[C@H](O)C(=O)N1CCN(c2cnc3[nH]cc(/C=C/C(N)=O)c3c2)CC1 [Example 276, (S,E)-3-(5-(4-(2-hydroxypropanoyl)piperazin-1-yl)-1H-pyrrolo[2,3-b]pyridin-3-yl)acrylamide]	> 1000
≤ 1000	CC(C)Oc1cc(-c2cnc3[nH]cc(/C=C/C(N)=O)c3c2)cc(C(F)(F)F)n1 [Example 272, (E)-3-(5-(2-isopropoxy-6-(trifluoromethyl)pyridin-4-yl)-1H-pyrrolo[2,3-b]pyridin-3-yl)acrylamide]	≤ 1000
≤ 1000	NC(=O)/C=C/c1c[nH]c2ncc(-c3ccc(N4CCCC4)nc3)cc12 [Example 250, (E)-3-(5-(6-(pyrrolidin-1-yl)pyridin-3-yl)-1H-pyrrolo[2,3-b]pyridin-3-yl)acrylamide]	≤ 1000
≤ 1000	COc1ccc(-c2cnc3[nH]cc(/C=C/C(N)=O)c3c2)cc1 [Example 12, (E)-3-(5-(4-Methoxyphenyl)-1H-pyrrolo[2,3-b]pyridin-3-yl)acrylamide]	≤ 1000
≤ 1000	NC(=O)/C=C/c1c[nH]c2ncc(N3CCN(c4ccccc4)CC3)cc12 [Example 297, (E)-3-(5-(4-phenylpiperazin-1-yl)-1H-pyrrolo[2,3-b]pyridin-3-yl)acrylamide]	≤ 1000
≤ 1000	N#Cc1ccc(-c2cnc3[nH]cc(/C=C/C(N)=O)c3c2)cn1 [Example 261, (E)-3-(5-(6-cyanopyridin-3-yl)-1H-pyrrolo[2,3-b]pyridin-3-yl)acrylamide]	≤ 1000
≤ 1000	COc1cccc(-c2cnc3[nH]cc(/C=C/C(N)=O)c3c2)c1 [Example 11, (E)-3-(5-(3-Methoxyphenyl)-1H-pyrrolo[2,3-b]pyridin-3-yl)acrylamide]	≤ 1000
≤ 1000	NC(=O)/C=C/c1c[nH]c2ncc(N3CCN(C(=O)c4ncc(F)cc4F)CC3)cc12 [Example 288, (E)-3-(5-(4-(3,5-difluoropicolinoyl)piperazin-1-yl)-1H-pyrrolo[2,3-b]pyridin-3-yl)acrylamide]	> 1000
≤ 1000	CN1CCC(NC(=O)c2ccc(-c3cnc4[nH]cc(/C=C/C(N)=O)c4c3)nc2)CC1 [Example 296, (E)-6-(3-(3-amino-3-oxoprop-1-en-1-yl)-1H-pyrrolo[2,3-b]pyridin-5-yl)-N-(1-methylpiperidin-4-yl)nicotinamide]	> 1000
≤ 1000	NC(=O)/C=C/c1c[nH]c2ncc(-c3cnc4ccccc4c3)nc12 [Example 263, (E)-3-(2-(quinolin-3-yl)-5H-pyrrolo[2,3-b]pyrazin-7-yl)acrylamide]	≤ 1000
≤ 1000	CC(C)N1CCN(C(=O)c2ccc(-c3cnc4[nH]cc(/C=C/C(N)=O)c4c3)cc2)CC1 [Example 268, (E)-3-(5-(4-(4-isopropyl-piperazine-1-carbonyl)phenyl)-1H-pyrrolo[2,3-b]pyridin-3-yl)acrylamide]	≤ 1000
≤ 1000	NC(=O)/C=C/c1c[nH]c2ncc(-c3ccccc3)nc12 [Example 4, (E)-3-(2-Phenyl-5H-pyrrolo[2,3-b]pyrazin-7-yl)acrylamide]	≤ 1000
> 1000	NC(=O)/C=C\C(=O)Nc1c[nH]c2ncc(-c3ccccc3)cc12 [Example 234, N^1--(5-phenyl-1H-pyrrolo[2,3-b]pyridin-3-yl)maleamide]	≤ 1000
≤ 1000	Cn1cc(-c2cnc3[nH]cc(/C=C/C(N)=O)c3n2)cn1 [Example 6, (E)-3-(2-(1-Methyl-1H-pyrazol-4-yl)-5H-pyrrolo[2,3-b]pyrazin-7-yl)acrylamide]	≤ 1000
≤ 1000	CC(C)(O)c1cccc(-c2cnc3[nH]cc(/C=C/C(N)=O)c3c2)c1 [Example 246, (E)-3-(5-(3-(2-hydroxypropan-2-yl)phenyl)-1H-pyrrolo[2,3-b]pyridin-3-yl)acrylamide]	≤ 1000
≤ 1000	N#C/C=C/c1c[nH]c2ncc(N3CCN(C(=O)c4ccccc4)CC3)cc12 [Example 279, (E)-3-(5-(4-benzoylpiperazin-1-yl)-1H-pyrrolo[2,3-b]pyridin-3-yl)acrylonitrile]	> 1000
≤ 1000	COc1cc(OC2CCCC2)cc(-c2cnc3[nH]cc(/C=C/C(N)=O)c3c2)c1 [Example 257, (E)-3-(5-(3-(cyclopentyloxy)-5-methoxyphenyl)-1H-pyrrolo[2,3-b]pyridin-3-yl)acrylamide]	≤ 1000
≤ 1000	CC(C)Oc1ccc(-c2cnc3[nH]cc(/C=C/C(N)=O)c3n2)cn1 [Example 284, (E)-3-(2-(6-isopropoxypyridin-3-yl)-5H-pyrrolo[2,3-b]pyrazin-7-yl)acrylamide]	≤ 1000
≤ 1000	NC(=O)/C=C/c1c[nH]c2ncc(Cc3ccccc3)cc12 [Example 39]	≤ 1000
≤ 1000	N#Cc1ccc(-c2cnc3[nH]cc(/C=C/C(N)=O)c3n2)cn1 [Example 285, (E)-3-(2-(6-cyanopyridin-3-yl)-5H-pyrrolo[2,3-b]pyrazin-7-yl)acrylamide]	≤ 1000
≤ 1000	N#Cc1ccc(-c2cnc3[nH]cc(/C=C/C(N)=O)c3n2)cc1 [Example 249, (E)-3-(2-(4-cyanophenyl)-5H-pyrrolo[2,3-b]pyrazin-7-yl)acrylamide]	≤ 1000
≤ 1000	NC(=O)/C=C/c1c[nH]c2ncc(-c3ccccc3)cc12 [Example 1, 3-(5-Phenyl-1H-pyrrolo[2,3-b]pyridin-3-yl)-acrylamide]	≤ 1000
≤ 1000	NC(=O)/C=C/c1c[nH]c2ncc(-c3cc(C(F)(F)F)cc(C(F)(F)F)c3)cc12 [Example 253, (E)-3-(5-(3,5-bis(trifluoromethyl)phenyl)-1H pyrrolo[2,3-b]pyridin-3-yl)acrylamide]	≤ 1000
> 1000	C/C=C/C(=O)Nc1c[nH]c2ncc(-c3ccccc3)cc12 [Example 235, (E)-N-(5-phenyl-1H-pyrrolo[2,3-b]pyridin-3-yl)but-2-enamide]	
≤ 1000	CC(=O)c1ccc(-c2cnc3[nH]cc(/C=C/C(N)=O)c3c2)cn1 [Example 303, (E)-3-(5-(6-acetylpyridin-3-yl)-1H-pyrrolo[2,3-b]pyridin-3-yl)acrylamide]	
≤ 1000	COCCN(C)C(=O)c1cnc2[nH]cc(/C=C/C(N)=O)c2c1 [Example 357, (E)-3-(3-amino-3-oxoprop-1-en-1-yl)-N-(2-methoxyethyl)-N-methyl-1H-pyrrolo[2,3-b]pyridine-5-carboxamide]	
≤ 1000	CN1CCC(C(=O)c2ccc(-c3cnc4[nH]cc(/C=C/C(N)=O)c4c3)cc2)CC1 [Example 334, (E)-3-(5-(4-(1-methylpiperidine-4-carbonyl)phenyl)-1H-pyrrolo[2,3-b]pyridin-3-yl)acrylamide]	
≤ 1000	CC(C)(O)c1cccc(-c2cnc3[nH]cc(C=C(C(N)=O)C(N)=O)c3c2)c1 [Example 365, 2-((5-(3-(2-hydroxypropan-2-yl)phenyl)-1H-pyrrolo[2,3-b]pyridin-3-yl)methylene) malonamide]	
